Measurements from PubChem BioAssay AID1919015 (Molecular Pharmacology Branch, DTP, NCI, 2023).
Where “and” joins values, the source holds several entries; their conditions need not be identical. Equal entries are not always repeated.

Test system: OVCAR-5 complex spheroids with HUVEC/MSC, viability, % test/control
Assay: Anticancer human tumor OVCAR-5 cell line growth inhibition [AhR];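 note: spheroids exposed to compounds for 7 days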;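 for viability, T/C: 100% = DMSO vehicle control wells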
Settings: for viability, T/C: stronger effect = lower value
Description: Multicellular complex tumor spheroid response to aryl hydrocarbon receptor antagonists in combination with a variety of drugs and investigational agents in selected tumor cell lines
The current study was undertaken to assess response to aryl hydrocarbon receptor antagonists in combination with standard-of-care drugs and investigational agents in solid tumor complex spheroid models. Complex spheroids include a stromal component modeled by human endothelial cells (HUVEC) and fibroblasts modeled by human mesenchymal stem cells (MSCs). The concentration ranges selected for each drug and investigational agent were based upon clinically achievable concentrations if the clinical Cmax of the agent was known.
Compounds. The drugs and investigational agents: BAY 2416964 (NSC825713), GNF351 (NSC835774), CH-223191 (NSC835775), CPI-455 (NSC825282), aza-TdCyd (NSC777586), decitabine (NSC127716), belinostat (NSC758774), entinostat (NSC756642), pevonedistat (NSC761192), tazemetostat (NSC777109), talazoparib (NSC765396), olaparib (NSC753686), selinexor (NSC780203), nedisertib (M3814, NSC802822), bortezomib (NSC756655), venetoclax (NSC766270), doxorubicin (NSC123127), elimusertib (BAY189344, NSC800525), ceralasertib (AZD6738, NSC777638), TAK-243 (NSC785004), alisertib (NSC759677), etoposide (NSC141540), topotecan (NSC609699), eribulin (NSC707389), gemcitabine (NSC613327), carboplatin (NSC241240), cisplatin (NSC119875), and SN-38 (NSC673596) were obtained from the National Cancer Institute (NCI) Developmental Therapeutics Program Chemical Repository (32). The FDA-approved anticancer drug set is available from the Developmental Therapeutics Program at https://dtp.cancer.gov/organization/dscb/obtaining/available plates.htm. […] The stock solutions were prepared in dimethyl sulfoxide (DMSO, Sigma-Aldrich, St. Louis, MO, cat. D2650), except for the platinum compounds which were prepared in saline (Quality Biological, Gaithersburg, MD, cat. 114-055-101), at 800-fold the tested concentration and stored at -70 degrees C prior to their use. All drugs and investigational agents were tested over a range starting from a high concentration at or near the clinical Cmax and decreasing in half-log increments. If the clinical Cmax for an agent had not been determined, the highest concentration tested was 10 microM (Table 1).
Cell Culture. All cells were maintained in an incubator at 37 degrees C and 5% CO2 with 95% humidity. The PDC lines were cultured according to standard operating procedures established by the NCI PDMR (https://pdmr.cancer.gov). Briefly, all PDCs were thawed and cultured in Matrigel-coated flasks prepared with a working solution of 1X Ham's F-12 nutrient mix, without supplementation (Invitrogen, Waltham, MA, cat. 11765054), 100 U/mL penicillin-streptomycin (Invitrogen, cat. 15140122), and 2.5% Matrigel (Corning Inc., Corning, NY, cat. 354248) for the first three passages. All PDCs were cultured in complete DMEM/F-12 media containing advanced DMEM/F-12 (Invitrogen, cat. 12634028), 4.9% defined fetal bovine serum, heat inactivated (HyClone Laboratories Inc., Logan, UT, cat. SH30070.03HI), 389 ng/mL hydrocortisone (Sigma-Aldrich, cat. H4001), 9.7 ng/mL human EGF recombinant protein (Invitrogen, cat. PHG0313), 23.4 microg/mL adenine (Sigma-Aldrich, cat. A2786), 97.3 U/mL penicillin-streptomycin (Invitrogen, cat. 15140122), 1.9 mM L-glutamine (Invitrogen, cat. 25030081), and 9.7 microM Y-27632 dihydrochloride (Tocris Bioscience, Bristol, United Kingdom, cat. 1254). The PDCs were cultured in complete DMEM/F12 media without 10 microM Y-27632 dihydrochloride for at least two passages prior to the screen. The established cell lines NCI-H1341 and […] were cultured in DMEM/F-12, HEPES (Invitrogen, cat. 11330032), 5% defined fetal bovine serum (HyClone Laboratories Inc., cat. SH30070.03), ITS premix universal culture supplement [insulin (5 microg/mL), transferrin (5 microg/mL), and selenious acid (5 ng/mL)] […]

| Compound | IC50 (curve of compound) | viability, T/C (compound 0.0316 µM) | viability, T/C (compound 0.1 µM) | viability, T/C (compound 0.316 µM) | viability, T/C (compound 1 µM) | viability, T/C (compound 3.16 µM) | viability, T/C (compound 10 µM) | also measured |
| --- | --- | --- | --- | --- | --- | --- | --- | --- |
| CC(C)CC(NC(=O)C(Cc1ccccc1)NC(=O)c1cnccn1)B(O)O (stereo unspecified) | 64.9 nM and 51 nM and 23.1 nM | – | – | – | – | – | – | viability, T/C (compound 0.000949 µM): 99.2% and 101% and 95.8%; viability, T/C (compound 0.003 µM): 99.8% and 102% and 100%; viability, T/C (compound 0.00949 µM): 100% and 96.3% and 85.5%; viability, T/C (compound 0.03 µM): 78.9% and 69.3% and 39%; viability, T/C (compound 0.0949 µM): 36% and 27.6% and 18%; viability, T/C (compound 0.3 µM): 24.7% and 18.1% and 11.4% |
| CC(C)c1c(-c2ccccc2)nc2c(C#N)c[nH]n2c1=O | > 10000 nM | 103% and 100% and 101% | 103% and 99.8% and 106% | 104% and 101% (2×) | 105% and 104% and 101% | 105% (2×) and 103% | 109% and 106% (2×) | – |
| CC(CO)NC(=O)c1cc(-c2ccc(Cl)cc2)nn(-c2cnn(C)c2)c1=O (stereo unspecified) | – | – | 107% [middle of 20 runs] | 108% [middle of 21 runs] | 114% [middle of 21 runs] | 103% [middle of 19 runs] | 98.4% [middle of 19 runs] | IC50 (compound alone, run of 08/08/2022): > 10000 nM |
| CC1(C)CCC(CN2CCN(c3ccc(C(=O)NS(=O)(=O)c4ccc(NCC5CCOCC5)c([N+](=O)[O-])c4)c(Oc4cnc5[nH]ccc5c4)c3)CC2)=C(c2ccc(Cl)cc2)C1 | > 10000 nM | 101% and 99.7% and 103% | 99.9% and 101% and 107% | 102% and 97.2% and 103% | 103% (2×) and 98.7% | 108% and 98.8% and 114% | 92% and 56.4% and 56% | – |
| CC1COCCN1c1cc(-c2ccnn2C)c2ccnc(-c3ccn[nH]3)c2n1 (stereo unspecified) | 290 nM and 229 nM and 240 nM | 102% and 95.4% and 103% | 84.8% and 79.3% and 79.7% | 47.3% and 38.3% and 41.1% | 30.7% and 25.6% and 26.6% | – | – | viability, T/C (compound 0.00316 µM): 105% and 103% and 102%; viability, T/C (compound 0.01 µM): 103% and 101% and 105% |
| CC1COCCN1c1cc(C2(S(C)(=N)=O)CC2)nc(-c2ccnc3[nH]ccc23)n1 (stereo unspecified) | 9160 nM and 6500 nM and 7400 nM | 101% and 102% and 99.5% | 101% (2×) and 99.1% | 104% and 102% and 96.8% | 100% and 97.1% and 98% | 89.4% and 71.8% and 75.2% | 46.7% and 37% and 41% | – |
| CCN(c1cc(-c2ccc(CN3CCOCC3)cc2)cc(C(=O)NCc2c(C)cc(C)[nH]c2=O)c1C)C1CCOCC1 | > 3000 nM | – | – | – | – | – | – | viability, T/C (compound 0.00949 µM): 104% (2×) and 101%; viability, T/C (compound 0.03 µM): 105% and 98.5% and 106%; viability, T/C (compound 0.0949 µM): 99.6% and 99.7% and 103%; viability, T/C (compound 0.3 µM): 101% and 100% and 105%; viability, T/C (compound 0.949 µM): 99.6% and 96.8% and 104%; viability, T/C (compound 3 µM): 101% and 96.4% and 104% |
| CC[C@@]1(O)C(=O)OCc2c1cc1n(c2=O)Cc2cc3c(CN(C)C)c(O)ccc3nc2-1 | > 100 nM and 23 nM and 75.9 nM | 57% and 37.1% and 61.3% | 50.6% and 40.1% and 46.5% | – | – | – | – | viability, T/C (compound 0.000316 µM): 102% and 99.2% and 104%; viability, T/C (compound 0.001 µM): 101% and 98.1% and 106%; viability, T/C (compound 0.00316 µM): 97.5% and 89.9% and 98.5%; viability, T/C (compound 0.01 µM): 88% and 79.8% and 89.2% |
| CCc1c2c(nc3ccc(O)cc13)-c1cc3c(c(=O)n1C2)COC(=O)[C@]3(O)CC | 13 nM and 7.38 nM and 7.51 nM | – | – | – | – | – | – | viability, T/C (compound 0.000949 µM): 90.5% and 88.5% and 79.2%; viability, T/C (compound 0.003 µM): 69% and 69.4% and 60.1%; viability, T/C (compound 0.00949 µM): 46% and 36.1% and 40.2%; viability, T/C (compound 0.03 µM): 45.3% and 36.5% and 41.5%; viability, T/C (compound 0.0949 µM): 28.9% and 21.7% and 21.8%; viability, T/C (compound 0.3 µM): 12.1% and 8% and 9.04% |
| COc1cc(C2c3cc4c(cc3C(OC3OC5COC(C)OC5C(O)C3O)C3COC(=O)C23)OCO4)cc(OC)c1O (stereo unspecified) | 3120 nM and 3790 nM and 2030 nM | 96.3% and 99.9% and 103% | 98.8% and 99.4% and 103% | 90.1% and 91.7% and 91.1% | 73.2% and 79.8% and 64.9% | 50% and 52.3% and 41.3% | 37.2% and 34.4% and 30.3% | – |
| COc1cc(Nc2ncc3c(n2)-c2ccc(Cl)cc2C(c2c(F)cccc2OC)=NC3)ccc1C(=O)O | 2920 nM and 1770 nM and 1250 nM | 88% and 84.9% and 84.8% | 79.3% and 80.2% and 76.8% | 61.4% and 57.7% and 55.4% | 58.3% and 55.7% and 50.5% | 51.2% and 49.3% and 47% | 42.7% and 41.6% and 39.5% | – |
